Laboratory results reported in US20040138315A1 (priority 2000, published 2004).
Where two headings read alike, the source gives them in different places.

Legend:
thromboxane A2 synthase [1] = molecular target: T1, thromboxane A2 synthase (Oryctolagus cuniculus, UniProt G1TAZ9); conditions: reference compound, historical; read-out: Historical IC50, Thromboxane Synthetase; cited from earlier work
T1 sequence (G1TAZ9 1-530): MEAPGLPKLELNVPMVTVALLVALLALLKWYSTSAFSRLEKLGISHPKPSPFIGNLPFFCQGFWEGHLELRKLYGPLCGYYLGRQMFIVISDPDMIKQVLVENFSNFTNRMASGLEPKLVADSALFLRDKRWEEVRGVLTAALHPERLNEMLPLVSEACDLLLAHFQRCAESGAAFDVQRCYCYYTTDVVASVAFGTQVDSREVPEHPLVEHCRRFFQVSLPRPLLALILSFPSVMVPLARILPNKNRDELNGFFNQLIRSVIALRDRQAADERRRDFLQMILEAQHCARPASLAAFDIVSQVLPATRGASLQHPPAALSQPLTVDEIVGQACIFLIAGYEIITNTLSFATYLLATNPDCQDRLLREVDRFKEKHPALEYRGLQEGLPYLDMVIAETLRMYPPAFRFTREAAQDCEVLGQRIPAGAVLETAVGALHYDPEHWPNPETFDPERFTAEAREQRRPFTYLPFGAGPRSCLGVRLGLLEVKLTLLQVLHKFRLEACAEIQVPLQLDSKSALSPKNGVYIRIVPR

thromboxane A2 synthase [2] = molecular target: T1, thromboxane A2 synthase; experiment: Thromboxane A2 synthase inhibition, TXB2 radioimmunoassay (194000); type: biochemical, rabbit
Protocol: Test compounds (IG-1 through IG-11) were evaluated for their ability to inhibit cyclooxygenase COX-1, cyclooxygenase COX-2, and thromboxane synthase. In these assays, in addition to the designations set forth above, IG-05 refers to resorcinol and IG-06 refers to orcinol.
To assess Thromboxane A2 synthase, thromboxane A2 synthase isolated from a microsomal fraction of rabbit platelets by conventional centrifugation was used. The test compound and/or vehicle was incubated with 1:200 dilution of thromboxane A2 synthase and 5 ng prostaglandin G2 as substrate in Tris buffer pH 7.5 for 30 minutes at 37° C. The thromboxane A2 formed is immediately converted to thromboxane B2, which was quantitated by a radioimmunoassay. Compounds are screened at 100 μM.

[3] = system: adenosine diphosphate-induced aggregation of platelet rich plasma (ADP receptor); experiment: Adenosine diphosphate, platelet aggregation (404010); type: cell-based, rabbit; conditions: 30 μM, platelet rich plasma, rabbit
Protocol: (§1) Test compounds referred to above were evaluated for inhibition of platelet aggregation induced by adenosine diphosphate, arachidonic acid, phorbol ester and Platelet Activating Factor (PAF) at […]. The following methods were employed in this analysis, and reference compounds for the respective assays are indicated in Appendix 1:
Venous blood obtained from male or female New Zealand derived albino rabbits weighing 2.5-3 kg was mixed with one-tenth volume of trisodium citrate (0.13 M) and centrifuged at room temperature for 10 min at 220 g. Test substance (30 EM)-induced aggregation of the supernatant platelet rich plasma by 50 percent or more (>50%) more relative to 1.2 μM adenosine diphosphate control response at 37° C. as mearsured by an optical aggregometer, indicates possible ADP receptor agonist activity.
At a test substance concentration where no significant agonist activity is seen, ability to reduce the adenosine diphosphate-induced maximum non-reversible aggregation response by 50 percent or more (≧50%) was indicative of ADP receptor antagonist activity.

[4] = system: PAF-acether-induced aggregation of platelet rich plasma (PAF receptor); experiment: PAF, platelet aggregation (463010); type: cell-based, rabbit; conditions: 30 μM, platelet rich plasma, rabbit
Protocol: as §1
(§2) Venous blood obtained from male or female New Zealand derived albino rabbits weighing 2.5-3 kg is mixed with one-tenth volume of trisodium citrate (0.13 M) and centrifuged at room temperture for 10 min at 220 g. Test Substance (30 μM)-induced aggregation of the supernatant platelet rich plasma by 50 percent or more (≧50%) within 5 min, relative to control 5 nM platelet activating factor-acether (PAF-acether) response at 37% C as measured by an optical aggregometer, indicates possible PAF receptor agonist activity.
At a test substance concentration where no significant agonist activity is seen, ability to reduce the PAF-acether-induced maximum non-reversible aggregation response by 50 percent or more (≧50%) indicates PAF receptor antagonist activity.

[5] = system: arachidonic acid-induced aggregation of platelet rich plasma; experiment: Arachidonic acid, platelet aggregation (412510); type: cell-based, rabbit; conditions: 30 μM, platelet rich plasma, rabbit
Protocol: as §1
Venous blood obtained from male or female New Zealand derived albino rabbits weighting 2.5-3 kg was mixed with one-tenth volume of trisodeium citrate (0.13M) and centrifuged at room temperature for 10 min at 220 g. Test substance (30 μM)-induced aggregation of the supernatant platelet rich plasma by 50 percent or more (≧50%) within 5 min, relative to 100 μM arachidonic acid response at 37° C. as measured by an optical aggregometer indicates possible agonist activity.
At a test substance concentration where no significant agonist activity is seen, ability to reduce the arachidonic acid-induced maximum non-reversible aggregation response by 50 percent or more (>50%) was indicative of antagonist activity.

[6] = system: PMA-induced aggregation of platelet rich plasma (phorbol ester receptor); experiment: Phorbol ester, platelet aggregation (461500); type: cell-based, rabbit; conditions: 30 μM, platelet rich plasma, rabbit
Protocol: as §1
as §2, with “temperature” for “temperture”, “substance” for “Substance”, “phorbol myristate acetate (PMA, 0.5 μM)” for “5 nM platelet activating factor-acether (PAF-acether)”, “37° C.” for “37% C”, “phorbol ester” for “PAF”
At a test substance concentration where no significant agonist activity is seen, ability to reduce the PMA (0.5 μM)-induced maximum non-reversible aggregation response by 50 percent or more (>50%) indicates phorbol ester receptor antagonist activity.

[7] = molecular target: T2, cyclooxygenase-2 (human recombinant) (Homo sapiens, UniProt P35354); experiment: Cyclooxygenase COX-2 inhibition, recombinant enzyme, PGE2 EIA (118010); type: biochemical; conditions: screened at 10 μM
T2 construct: 118010; host or cells: Spodoptera frugiperda (insect cells)
T2 sequence (P35354 18-604): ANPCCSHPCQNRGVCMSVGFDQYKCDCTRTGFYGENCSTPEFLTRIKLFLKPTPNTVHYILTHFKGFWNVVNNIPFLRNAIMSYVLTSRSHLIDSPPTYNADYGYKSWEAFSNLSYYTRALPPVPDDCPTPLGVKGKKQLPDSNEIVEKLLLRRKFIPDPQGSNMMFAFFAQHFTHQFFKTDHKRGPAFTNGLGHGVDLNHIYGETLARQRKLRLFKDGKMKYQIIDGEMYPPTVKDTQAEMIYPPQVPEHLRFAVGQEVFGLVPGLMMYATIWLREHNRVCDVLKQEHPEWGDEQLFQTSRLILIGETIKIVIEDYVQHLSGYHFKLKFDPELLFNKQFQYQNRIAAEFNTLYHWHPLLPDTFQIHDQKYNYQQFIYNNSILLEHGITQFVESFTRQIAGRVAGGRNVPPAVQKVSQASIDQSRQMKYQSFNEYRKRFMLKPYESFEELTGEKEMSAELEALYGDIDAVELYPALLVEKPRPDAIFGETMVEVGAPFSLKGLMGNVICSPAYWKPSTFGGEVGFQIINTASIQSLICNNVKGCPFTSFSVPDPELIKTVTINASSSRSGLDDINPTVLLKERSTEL
Protocol: (§3) In these assays, in addition to the designations set forth above, IG-05 refers to resorcinol and IG-06 refers to orcinol.
Following centrifugation, substrate conversion to PGE2 was measured by an Amersham EIA kit. Compounds are screened at 10 μM.

cyclooxygenase COX-1 = molecular target: T3, cyclooxygenase COX-1 (Homo sapiens, UniProt P23219); experiment: Cyclooxygenase COX-1 inhibition in human platelets, PGE2 EIA (116010); type: cell-based; conditions: screened at 10 μM
T3 construct: host or cells: human platelets
Protocol: as §3
To assess COX-1 inhibition, test compound and/or vehicle was incubated with human platelets (5×10^7/well) for 15 minutes at5 37° C. Calcium ionophore A23187 (10 μM) was added to induce the arachidonic acid cascade. After another 15 minutes incubation at 37° C., PGE2 levels in the supernatant were quantiated using the Amersham EIA kit. Compounds were screened at 10 μM.

T3 sequence (P23219 24-599): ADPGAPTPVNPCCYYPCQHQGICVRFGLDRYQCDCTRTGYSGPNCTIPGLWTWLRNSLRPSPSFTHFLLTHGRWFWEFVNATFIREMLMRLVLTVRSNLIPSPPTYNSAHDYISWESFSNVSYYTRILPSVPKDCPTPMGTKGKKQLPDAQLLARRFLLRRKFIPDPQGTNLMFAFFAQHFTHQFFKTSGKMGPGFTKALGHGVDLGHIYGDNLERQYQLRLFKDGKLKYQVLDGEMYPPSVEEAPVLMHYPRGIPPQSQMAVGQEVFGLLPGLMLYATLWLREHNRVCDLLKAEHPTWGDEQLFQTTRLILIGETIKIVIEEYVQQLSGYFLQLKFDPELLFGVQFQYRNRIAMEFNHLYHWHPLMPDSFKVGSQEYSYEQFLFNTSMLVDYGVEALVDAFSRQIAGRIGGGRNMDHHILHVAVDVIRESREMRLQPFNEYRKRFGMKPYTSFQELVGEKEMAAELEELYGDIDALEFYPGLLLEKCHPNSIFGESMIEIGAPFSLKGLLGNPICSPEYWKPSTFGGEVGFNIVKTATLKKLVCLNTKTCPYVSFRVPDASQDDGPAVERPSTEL

For `O=C(O)c1ccc(OCCn2ccnc2)cc1` [Dazoxiben, reference compound], the IC50 (thromboxane A2 synthase [1]) is listed as 22 nM and the IC50 (thromboxane A2 synthase [2]; reference compound, concurrent, read-out: Concurrent IC50, Thromboxane Synthetase) is listed as 61 nM.

For `Cc1c(O)cc(C(C)(C)CCCC(C)C)cc1O` [IG-10, 2-Methyl-5-(1,1,5-trimethylhexyl)resorcinol], the “ANT. (antagonist response), ADP platelet aggregation” value [3] was 17%, the “AG. (agonist response), ADP platelet aggregation” value ([3]; relative to […] ADP) was 0% and the “Thromboxane synthase inhibition (in words)” value (thromboxane A2 synthase [2]; screened at 100 μM) was “significantly inhibit thromboxane synthase”. The “ANT. (antagonist response), PAF platelet aggregation” value [4] was 6%, the “AG. (agonist response), PAF platelet aggregation” value ([4]; relative to 5 nM PAF-acether) was 0% and the “ANT. (antagonist response), arachidonic acid platelet aggregation” value [5] was 100%. The “AG. (agonist response), arachidonic acid platelet aggregation” value ([5]; relative to 100 μM arachidonic acid) was 0%, the “ANT. (antagonist response), phorbol ester platelet aggregation” value [6] was 9% and the “AG. (agonist response), phorbol ester platelet aggregation” value ([6]; relative to PMA 0.5 μM) was 0%. For the same molecule, the melting point was 145 to 147 °C, the “COX-2 inhibition (in words)” value [7] was “not COX-2” and the “COX-1 inhibition (in words)” value (cyclooxygenase COX-1) was “potent inhibitors of COX-1”.
